In patent US9487470B2, “4-((substituted phenyl) difluoromethyl) phenoxy carboxylic acid derivative, and preparation method and uses thereof” (Zhejiang Hisun Pharmaceutical Co., Ltd., priority 2012, dated 2016):

Columns and labels:
[1] = test system: hyperlipoidemia model of Goldenhamsters (blood plasma TC, HDL-C, LDL-C); assay: Pharmacological test group 2: effects on blood lipid levels of Goldenhamsters in hyperlipoidemia model; type: in vivo; details: for HDL-C, after administration / LDL-C, after administration / TC, after administration: 40 mg/kg intragastric, 1 week, high-lipid feed continued, asterisks = P vs before administration; for HDL-C, after administration / LDL-C, after administration / TC, after administration / HDL-C, before administration / LDL-C, before administration / TC, before administration: blood plasma, x±s; for HDL-C, before administration / LDL-C, before administration / TC, before administration: baseline of the group before administration, high-lipid feed 2 weeks, 6 animals
Source text: Animals: 120 male Goldenhamsters, aged 8 weeks, body weight 80-100 g, provided by Vital River Laboratories, Beijing.
Kits: The kits for total cholesterol (TC) and high density lipoprotein cholesterol (HDL-C) were provided by SYSMEX, and the kits for low density lipoprotein cholesterol (LDL-C) were provided by Shanghai Kehua Bio-engineering Co., Ltd.
Apparatus: SYSMEX Automatic Biochemistry Analyzer, Bechman centrifuge, Setoris balance.
The animals were acclimatized and fed for 1 week, ad lib, light cycle was 10 h/14 h, and then feeds with high lipid content were fed to the animals (formulation: 0.3% cholesterol, 20% palm oil, and 79.7% basic feeds). The animals were fed for 2 weeks, and were fasted at 4:00 pm on the 14th day (fasted for 16 h). On the 15th day, the animals were anaesthetized with ethyl ether, weighted, and then 0.5 ml blood was collected from vena orbitalis posterior. The blood was anticoagulated with heparin, and was centrifugated at 5000 rpm for 10 min. The blood plasma was taken, and the levels of TC, HDL-C, and LDL-C in blood plasma were determined using automatic biochemistry analyzer.
During the administration, feeds with high lipid content were continuously fed to the animals. The animals were fed for 1 week, and were fasted at 4:00 pm on the 7th day. On the 8th day, the animals were anaesthetized with ethyl ether, weighted, and then 0.5 ml blood was collected from vena orbitalis posterior. The blood was anticoagulated with heparin, and was centrifugated at 5000 rpm for 10 min. The blood plasma was taken, and the levels of TC, HDL-C, and LDL-C in blood plasma were determined using automatic biochemistry analyzer.
The results were represented by x±s, and t test was employed for comparing the results obtained before and after administration.

[2] = Solubility in water (remark on the test drugs); type: physicochemical; details: formulated with 20% solutol
[3] = test system: hyperlipoidemia model of Goldenhamsters (blood plasma TC, TG, HDL-C, LDL-C); assay: Pharmacological test group 1: effects on blood lipid levels of Goldenhamsters in a hyperlipoidemia model; type: in vivo
Source text: Animals: 134 male Goldenhamsters, aged 8 weeks, body weight 80-100 g, provided by Vital River Laboratories, Beijing. […] Kits: The kits for total cholesterol (TC), triglyceride (TG), and high density lipoprotein cholesterol (HDL-C) were provided by SYSMEX, and the kits for low density lipoprotein cholesterol (LDL-C) were provided by Shanghai Kehua Bio-engineering Co., Ltd. Apparatus: SYSMEX Automatic Biochemistry Analyzer, Bechman centrifuge, Setoris balance. The animals were acclimatized and fed for 1 week, ad lib, light cycle was 10 h/14 h, and then feeds with high lipid content were fed to the animals (formulation: 0.3% cholesterol, 20% palm oil, and 79.7% basic feeds). The animals were fed for 10 days, and were fasted at 4:00 pm on the 10th day (fasted for 16 h). On the 11th day, the animals were anaesthetized with ethyl ether, weighted, and then 0.5 ml blood was collected from vena orbitalis posterior. The blood was anticoagulated with heparin, and was centrifugated at 5000 rpm for 10 min. The blood plasma was taken, and the levels of TC, TG, HDL-C, and LDL-C in blood plasma were determined using automatic biochemistry analyzer. The animals were acclimatized and fed for 1 week, ad lib, light cycle was 10 h/14 h, and then feeds with high lipid content were fed to the animals (formulation: 0.3% cholesterol, 20% palm oil, and 79.7% basic feeds). The animals were fed for 2 weeks, and were fasted at 4:00 pm on the […] (fasted for 16 h). On the 22nd day, the animals were anaesthetized with ethyl ether, weighted, and then 0.5 ml blood was collected from vena orbitalis posterior. The blood was anticoagulated with heparin, and was centrifugated at 5000 rpm for 10 min. The blood plasma was taken, and the levels of TC, TG, HDL-C, and LDL-C in blood plasma were determined using automatic biochemistry analyzer. […] During the administration, feeds with high lipid content were continuously fed to the animals. The animals were fed for 1 week, and were fasted at 4:00 pm on the 7th day. On the 8th day, the animals were anaesthetized with ethyl ether, weighted, and then 0.5 ml blood was collected from vena orbitalis posterior. The blood was anticoagulated with heparin, and was centrifugated at 5000 rpm for 10 min. The blood plasma was taken, and the levels of TC, TG, HDL-C, and LDL-C in blood plasma were determined using automatic biochemistry analyzer. The results were represented by x±s, and t test was employed for comparing the results obtained before and after administration.

[4] = 40 mg/kg, t test after vs before administration
[5] = 40 mg/kg intragastric, 1 week, high-lipid feed continued, blood plasma, x±s, asterisks = P vs before administration

| Compound | solubility in water [2] | HDL-C, after administration [1] | LDL-C, after administration [1] | TC, after administration [1] | effect on HDL-C, in comparison with the results before administration (in words) [1, 4] | HDL-C, before administration [1] | LDL-C, before administration [1] | TC, before administration [1] | blood lipid-regulating effects (conclusion from table 3) ([1]; 40 mg/kg) | effect on LDL-C, in comparison with the results before administration (in words) [1, 4] | also measured |
| --- | --- | --- | --- | --- | --- | --- | --- | --- | --- | --- | --- |
| Cc1ccccc1C(F)(F)c1ccc(OC(C)(C)C(=O)OC(C)C)cc1 [HS003-015, Isopropyl 2-(4-((2-methylphenyl)difluoromethyl)phenoxy)-2-methylpropionate] | insoluble | 1.77 ± 0.18 | 2.26 ± 1.03 | 15.3 ± 3.74 | significantly increases | 1.54 ± 0.07 | 3.14 ± 1.22 | 13.99 ± 2.3 | – | – | – |
| Cc1cc(OC(C)(C)C(=O)OC(C)C)ccc1C(F)(F)c1ccc(Cl)cc1 [HS003-019, Isopropyl 2-(4-((4-chlorophenyl)difluoromethyl)-3-methylphenoxy)-2-methylpropionate] | insoluble | 1.84 ± 0.21 | 1.83 ± 0.56 | 10.62 ± 1.02 | – | 1.67 ± 0.22 | 3.12 ± 1.47 | 13.99 ± 2.28 | excellent blood lipid-regulating effects | significantly decreases | therapeutic effect compared with fenofibrate (conclusion from table 3) ([1]; 40 mg/kg, fenofibrate 40 mg/kg): outstanding therapeutic effects, and are superior to fenofibrate; effect on TC, in comparison with the results before administration (in words) [1, 4]: significantly decreases |
| COC(=O)c1ccc(C(F)(F)c2ccc(OC(C)(C)C(=O)OC(C)C)cc2)cc1 [HS003-017, Isopropyl 2-(4-((4-methoxyacylphenyl)difluoromethyl)phenoxy)-2-methylpropionate] | – | – | – | – | – | – | – | – | – | – | regulating effects on the levels of blood lipid (conclusion from table 2) ([3]; 40 mg/kg): tend to the effect of significantly decreasing TG and increasing HDL-C; HDL-C, after administration [3, 5]: 4.09 ± 0.18; LDL-C, after administration [3, 5]: 1.41 ± 0.34; TC, after administration [3, 5]: 11.61 ± 1.42; TG, after administration [3, 5]: 0.81 ± 0.15; therapeutic effect compared with fenofibrate (conclusion from table 2) ([3]; 40 mg/kg, fenofibrate 40 mg/kg): outstanding therapeutic effects on decreasing TG, and are significantly superior to fenofibrate; effect on TG, in comparison with the results before administration (in words) [3, 4]: significantly decreases |
| CC(C)OC(=O)C(C)(C)Oc1ccc(C(F)(F)c2cccc(Cl)c2)cc1 [HS003-011, Isopropyl 2-(4-((3-chlorophenyl)difluoromethyl)phenoxy)-2-methylpropionate] | insoluble | 1.93 ± 0.91 | 2.21 ± 0.91 | 11.94 ± 2.71 | increase | 1.46 ± 0.16 | 4.02 ± 1.34 | 13.91 ± 2.34 | excellent blood lipid-regulating effects | significantly decreases | – |

Now from value to compound, other results behind:

| solubility in water [2] | Compound | HDL-C, after administration [1] | LDL-C, after administration [1] | TC, after administration [1] | effect on HDL-C, in comparison with the results before administration (in words) [1, 4] | HDL-C, before administration [1] | LDL-C, before administration [1] | TC, before administration [1] | blood lipid-regulating effects (conclusion from table 3) ([1]; 40 mg/kg) | effect on LDL-C, in comparison with the results before administration (in words) [1, 4] | also measured |
| --- | --- | --- | --- | --- | --- | --- | --- | --- | --- | --- | --- |
| insoluble | Cc1ccc(C(F)(F)c2ccc(OC(C)(C)C(=O)OC(C)C)cc2)cc1 [HS003-009, Isopropyl 2-(4-((4-methylphenyl)difluoromethyl)phenoxy)-2-methylpropionate] | – | – | – | – | – | – | – | – | – | – |
| insoluble | Cc1cccc(C(F)(F)c2ccc(OC(C)(C)C(=O)OC(C)C)cc2)c1 [HS003-012, Isopropyl 2-(4-((3-methylphenyl)difluoromethyl)phenoxy)-2-methylpropionate] | – | – | – | – | – | – | – | – | – | – |
